The source of these data is ChEMBL document CHEMBL5247574, “Recent Progress on Bile Acid Receptor Modulators for Treatment of Metabolic Diseases” (J Med Chem, 2016).

SMILES strings stand for the structures. Where only a bound is given, the exact number is not on record here.

What is called EC50 is the midpoint of the concentration-response curve. In general, IC50 refers to the concentration at which inhibition is half-maximal. Broadly, the solubility is how much of the substance goes into solution per volume. A higher solubility goes with a readily soluble substance.

In data set [1] the target is T1, G-protein coupled bile acid receptor 1 (Rattus norvegicus) (UniProt Q80T02).
T1 sequence (whole entry): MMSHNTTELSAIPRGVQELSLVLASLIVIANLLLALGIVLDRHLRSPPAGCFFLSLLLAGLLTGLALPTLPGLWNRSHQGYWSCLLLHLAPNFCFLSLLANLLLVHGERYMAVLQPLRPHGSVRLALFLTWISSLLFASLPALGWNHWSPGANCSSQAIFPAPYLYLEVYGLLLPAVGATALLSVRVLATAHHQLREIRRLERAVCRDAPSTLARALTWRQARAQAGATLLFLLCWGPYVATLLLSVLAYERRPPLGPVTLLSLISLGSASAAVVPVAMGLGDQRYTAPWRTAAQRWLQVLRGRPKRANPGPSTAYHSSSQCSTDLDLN
Nature of the data set: Agonist activity at TGR5 in rat Primary intestinal cell assessed as stimulation of GLP-1 secretion at 30 uM relative to control. The note with it: filed as agonist. The class given is cell-based.

Data set [2] has as its target T2, G-protein coupled bile acid receptor 1 (Homo sapiens, UniProt Q8TDU6).
T2 sequence (Q8TDU6 whole entry): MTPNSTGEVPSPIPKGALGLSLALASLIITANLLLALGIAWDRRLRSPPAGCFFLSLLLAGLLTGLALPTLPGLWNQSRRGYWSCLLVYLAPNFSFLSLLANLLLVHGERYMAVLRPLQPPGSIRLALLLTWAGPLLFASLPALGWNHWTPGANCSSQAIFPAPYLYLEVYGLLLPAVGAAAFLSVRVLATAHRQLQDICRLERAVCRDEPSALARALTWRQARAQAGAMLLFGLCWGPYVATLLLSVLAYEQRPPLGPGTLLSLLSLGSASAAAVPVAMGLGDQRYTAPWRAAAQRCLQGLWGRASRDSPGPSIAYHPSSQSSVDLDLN
Nature of the data set: Agonist activity at TGR5 in human HEK293 cells assessed as increase in cAMP production. It is filed as cell-based. Background: Cyclic AMP is a second messenger, typically raised through Gs and lowered through Gi signalling.

For data set [3], the target named is T3, Bile acid receptor (Homo sapiens, UniProt Q96RI1).
T3 sequence (Q96RI1 whole entry): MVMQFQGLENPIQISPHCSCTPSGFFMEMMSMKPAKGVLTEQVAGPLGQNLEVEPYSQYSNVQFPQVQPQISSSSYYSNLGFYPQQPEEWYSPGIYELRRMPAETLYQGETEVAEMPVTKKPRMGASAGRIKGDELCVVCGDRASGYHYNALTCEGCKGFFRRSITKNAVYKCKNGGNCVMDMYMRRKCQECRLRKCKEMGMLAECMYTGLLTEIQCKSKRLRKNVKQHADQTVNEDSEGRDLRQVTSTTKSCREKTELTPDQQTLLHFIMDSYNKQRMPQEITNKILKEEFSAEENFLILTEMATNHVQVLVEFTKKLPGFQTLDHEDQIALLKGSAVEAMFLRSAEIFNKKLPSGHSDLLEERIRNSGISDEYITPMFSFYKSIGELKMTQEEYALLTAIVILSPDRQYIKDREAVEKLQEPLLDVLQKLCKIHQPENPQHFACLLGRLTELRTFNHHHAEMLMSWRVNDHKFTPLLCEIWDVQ
Nature of the data set: Antagonist activity at FXR (unknown origin) by HTFR assay.

The target in data set [4] is T3, Bile acid receptor. Nature of the data set: Antagonist activity at FXR in human HepG2 cells in presence of CDCA by luciferase reporter assay. It is filed as cell-based. For orientation: Reporter assays use an easily measured gene product as a stand-in for the process of interest.
Data set [5] has as its target T2, G-protein coupled bile acid receptor 1. Nature of the data set: Agonist activity at human TGR5 transfected in CHO-K1 cells assessed as increase in cAMP production. The class given is cell-based.
In data set [6] the target is T4, G-protein coupled bile acid receptor 1 (Homo sapiens) (UniProt Q8TDU6).
T4 sequence (whole entry): T2 sequence (Q8TDU6 whole entry)
Briefly: Agonist activity at human TGR5 transfected in CHO cells assessed as increase in cAMP production at 100 nM relative to control. It is filed as cell-based. To be noted: filed as agonist.

Data set [7] addresses T3, Bile acid receptor. Briefly: Agonist activity at human GST-tagged FXR LBD (193 to 472 residues) by FRET assay.
Data set [8] deals with T5, G-protein coupled bile acid receptor 1 (Mus musculus) (UniProt Q80SS6).
T5 sequence (whole entry): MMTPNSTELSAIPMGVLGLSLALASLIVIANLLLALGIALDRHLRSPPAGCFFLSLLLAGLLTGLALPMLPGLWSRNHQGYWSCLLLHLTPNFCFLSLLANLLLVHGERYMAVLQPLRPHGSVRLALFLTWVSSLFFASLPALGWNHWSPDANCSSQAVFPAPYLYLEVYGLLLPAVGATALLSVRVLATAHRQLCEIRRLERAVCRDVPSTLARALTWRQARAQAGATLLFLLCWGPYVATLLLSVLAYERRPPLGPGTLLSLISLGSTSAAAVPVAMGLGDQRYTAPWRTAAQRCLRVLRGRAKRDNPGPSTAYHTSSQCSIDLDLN
Nature of the data set: In vivo agonist activity at TGR5 in C57/Bl6 mouse assessed as increase in GLP-1 secretion at 30 mg/kg, po relative to control. It is filed as functional, organism-based.

In data set [9] the target is T2, G-protein coupled bile acid receptor 1. Briefly: Agonist activity at human TGR5 transfected in CHO cells assessed as increase in cAMP production. The class given is cell-based.
In data set [10] the target is T4, G-protein coupled bile acid receptor 1 (Homo sapiens). Nature of the data set: Agonist activity at human TGR5 expressed in human HEK293 cells at 20 uM measured after 5.5 hrs by steady-glo luciferase assay relative to control. It is filed as cell-based. To be noted: filed as agonist.
The target of data set [11] is T2, G-protein coupled bile acid receptor 1. Briefly: Agonist activity at human TGR5 expressed in human HEK293 cells measured after 5.5 hrs by steady-glo luciferase assay. It is filed as cell-based.
The target in data set [12] is T4, G-protein coupled bile acid receptor 1 (Homo sapiens). Briefly: Agonist activity at human TGR5 transfected in human NCI-H716 cells assessed as increase in cAMP production at 10 uM relative to control. The class given is cell-based. The note with it: filed as agonist.
Data set [13] shares this target. Briefly: Agonist activity at human TGR5 transfected in human NCI-H716 cells assessed as increase in GLP-1 secretion at 5 uM relative to control. The note with it: filed as agonist. It is filed as cell-based.
The nature of data set [14]: Clearance in mouse liver microsomes. It is filed as ADME, Microsome. To be noted: microsomes.
Data set [15] deals with T6, G-protein coupled bile acid receptor 1 (Mus musculus, UniProt Q80SS6).
T6 sequence (Q80SS6 whole entry): T5 sequence (whole entry)
Briefly: Agonist activity at mouse TGR5.

Data set [16] is described as follows: Aqueous solubility of compound. The class given is physicochemical. To be noted: buffer.
The nature of data set [17]: Clearance in human liver microsomes. The note with it: microsomes. The class given is ADME, Microsome. On the technique in general: Liver microsomes are vesicles of endoplasmic reticulum, rich in cytochrome P450 enzymes.
The target of data set [18] is T7, Bile acid receptor (Homo sapiens) (UniProt Q96RI1).
T7 sequence (whole entry): T3 sequence (Q96RI1 whole entry)
Briefly: Agonist activity at FXR (unknown origin) by alphascreen assay. The note with it: filed as agonist.

With `CN1CC(C)(C)N(C(=O)COc2cccc3cnccc23)c2ccc(F)cc21`, the Activity in [1] is 251%.

Turning to `Fc1ccc(-n2c(COc3cccc4cnccc34)nc3ccccc32)c(Cl)c1`, the EC50 in [2] was determined as 229 nM.

As to `CC(C)c1onc(-c2c(Cl)cccc2Cl)c1COc1ccn(-c2cccc(C(=O)O)c2)n1`, the EC50 on Bile acid receptor [3] is 80000 nM.

`CC[C@@H](CC[C@@H](C)[C@H]1CCC2=C3CC[C@H]4C(C)=CCC[C@]4(C)C3CC[C@@]21C)C(C)C` (some centres not stated): the IC50 on Bile acid receptor [4] is 35000 nM.

`Cc1c(Cl)cccc1OCCCC(=O)N1CCCc2c(-c3cnn(Cc4c(F)cc(C(=O)NCCS(=O)(=O)O)cc4Cl)c3)cccc21`: the EC50 in [5] was determined as 23 nM.

Take `Cc1ccc(-c2csc3nnc(SCc4c(F)cccc4Cl)n23)cc1`: in [2], the EC50 was under 0.5 nM.

As for `COc1ccc(C(C)(C)c2cnc(SCCOc3c(F)cccc3Cl)n2-c2ccc(F)cc2)cc1OC`, the Activity in data set [6] worked out at 97%.

Turning to `N#Cc1cc(F)ccc1N(C(=O)COc1cccc2cnccc12)c1ccc(F)cc1Cl`, the concentration giving a half-maximal response (EC50) in data set [2] was found to be 7370 nM.

Regarding `O=C(c1cc(C(F)(F)F)cc(C(F)(F)F)c1)N1CCCn2cccc2C1c1ccccc1` (configuration not stated), the EC50 in [2] was under 10000 nM.

In turn, `O=C(O)c1ccc2nc(N3CCC(OCc4c([C@H]5CCCC[C@@H]5C(F)(F)F)noc4C4CC4)CC3)sc2c1` (stereo in doubt; form 1) showed an EC50 at Bile acid receptor [7] of 64 nM.

In the case of `COc1ccc(C(C)(C)c2cnc(SCCNCc3cccnc3)n2-c2ccc(F)cc2)cc1OC`, the figures for the Activity in data set [6] and in [8] were 129% and 320%, respectively.

On to `Cc1c(Cl)cccc1OCCCC(=O)N1CCC(Cc2cccc(C(=O)NCCS(=O)(=O)O)c2)c2ccccc21` (configuration not stated), for which the EC50 in [5] amounted to 24 nM.

In the case of `O=c1c2cccnc2nc(-c2cncc(Cl)c2)n1NCc1ccc(Cl)cc1F`, in data set [2], the EC50 is under 10000 nM.

Take `Fc1cccc(F)c1-c1ccncc1CN1C(c2ccco2)=NOC1c1ccccc1` (configuration not stated): in data set [2], the 50% effective concentration (EC50) was under 100 nM.

Regarding `Cc1cc(/C(C[C@H](c2ccc(C3C[C@@H]4C(C(=O)O)[C@@H]4C3)cc2)c2ccc(F)cc2F)=N\O)ccn1` (some centres not stated), in data set [9], the EC50 was 1 nM.

The molecule `CC(C)c1onc(-c2c(Cl)cccc2Cl)c1COc1ccn(Cc2ccc(-c3ccccc3C(=O)O)cc2)n1` returned an EC50 at Bile acid receptor [3] of 6000 nM.

In turn, `Fc1ccccc1-c1ccncc1CN1C(c2ccco2)=NOC1c1cc(C(F)(F)F)cc(C(F)(F)F)c1` (configuration not stated) yielded an Activity in [10] of 102%. Moreover, a half-maximal response in data set [11] (EC50) required 15 nM.

As to `CNc1cccc([C@H]2O[C@H](CC(=O)Nc3ccccc3F)C(=O)N(CC(C)C)c3ccccc32)c1`, the Activity worked out at 100% in [12] and 157% in data set [13].

Regarding `O=C(c1cccnc1Oc1cc(Cl)ccc1Cl)N1CCCc2ccccc21`, the CLH in [14] was 2134 mL/min/g; in [17], 1418 mL/min/g. The same molecule displayed an EC50 in [15] of 2560 nM. Further, in [16], the solubility was under 1 µg/mL.

`CC[C@H]1[C@@H](O)C2C3CC[C@H](C(C)CCOS(=O)(=O)O)[C@@]3(C)CCC2[C@@]2(C)CC[C@@H](O)C[C@@H]12` (some centres not stated): the Activity in data set [18] turned out to be 30 nM.

For `O=C(O)c1ccc2nc(N3CCC(OCc4c([C@H]5CCCC[C@@H]5C(F)(F)F)noc4C4CC4)CC3)sc2c1` (stereo in doubt; form 2), it took 245 nM to reach a half-maximal effect on Bile acid receptor [7] (EC50).
